Measured values taken from patent publication US8183383B2, “Protein tyrosine phosphatase 1B inhibitor, preparation methods and uses thereof” (Shanghai Institute of Materia Medica, Chinese Academy of …, priority 2007, dated 2012).

How the values were obtained:
[1] = tested on: insulin receptors (IRs) in CHO/IR cells; test: Effect on the phosphorylation level of insulin receptors in CHO/IR cells; type: cell-based; conditions: CHO/IR cells, 0.21, 0.43, 0.85, 1.70 μM, 10 nM insulin stimulation, FIG. 1
From the text: 1). Experimental principle: The phosphorylation levels of insulin receptors (IRs) in cells sensitive to insulin are regulated by PTK and PTPase. PTP1B is a negative regulator during the process. It can be evaluated by measuring the phosphorylation level of IRs in CHO/IR cells whether the PTP inhibitor has entered into the cells and how its effect in cells is.
2). Experimental Protocol: • 1. Cell inoculation: Cells in good growth condition were inoculated into a 6-well plate with a density of 3-4×10^5 cells/well. To each well was added 2 mL F12 culture media containing 10% FBS. • 2. Starvation: After cultivation for 24 h, to each well was added 2 mL serum-free F12 culture media. Then the plate was cultivated overnight. • 3. Administration: After removing the old culture media, to each well was added 0.9 mLserum-free F12 culture media containing the test compound, wherein 1 mM Na3VO4 and 0.1% DMSO were used as positive and negative control, respectively. The plate was incubated for 2-4 h. • 4. Insulin stimulation: To each well was added 100 μL 100 nM insulin solution so that the final concentration was 10 nM. The reaction was carried out for 10 min. • 5. Sample collection: After discarding the culture media, to each well was added 150 μL×1 loading buffer. […]
3). Experimental results: The experiment evaluated the effect of WY586s on the phosphorylation levels of insulin receptors in CHO/IR cells. […]

hPTP1B = molecular target: T1, hPTP1B (Homo sapiens, UniProt P18031); test: PTP1B inhibition test (pNPP hydrolysis, absorption at 410 nm); type: biochemical; conditions: recombinant hPTP1B catalytic domain 40 nM, 2 mM pNPP, pH 7.0, 2% DMSO; read-out: IC50(μM), inhibitory activity of the test compounds against PTP1B
T1 construct: The catalytic structural domain of hPTP1B was expressed in E-coli system by a molecular biology protocol; made in house; host or cells: E. coli
T1 sequence (P18031 3-277 limits assumed): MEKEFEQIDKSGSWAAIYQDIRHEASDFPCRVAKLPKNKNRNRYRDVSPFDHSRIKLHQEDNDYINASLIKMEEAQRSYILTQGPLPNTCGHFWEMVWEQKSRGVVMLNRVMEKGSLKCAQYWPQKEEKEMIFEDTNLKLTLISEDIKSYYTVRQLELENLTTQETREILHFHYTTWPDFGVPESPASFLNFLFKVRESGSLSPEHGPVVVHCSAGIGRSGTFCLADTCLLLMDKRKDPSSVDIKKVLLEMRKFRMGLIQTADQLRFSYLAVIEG
From the text: 1) Test principle: The catalytic structural domain of hPTP1B was expressed in E-coli system by a molecular biology protocol. The purified hPTP1B recombinant protein can hydrolyze the phosphoester linkage of the pNPP substrate to obtain a product which has a strong light absorption at 410 nm. Therefore, the variation of the enzyme activity and the inhibitory activity of a compound against the enzyme can be observed by directly monitoring the changes in the light absorption at 410 nm. A typical activity assay system is as follows: 50 mM Mops, PH 7.0, 1 mM EDTA, 2 mM DTT, 2 mM PNPP, 2% DMSO, 40 nM hPTP1B.
2) Measuring Index: The light absorption was dynamically measured at 410 nm for 3 min. The slope of the first-order reaction of the dynamic curve thereof was considered as the activity index of the enzymes.
3) Measurement: • 1. 1 mg sample was dissolved in 200 μL DMSO. To each wall of the A2-H11 of a 96-wells polypropylene plate, 20 μL of the solution was added, followed by addition of 80 μL DMSO. The plate was used as mother plate. • 2. To each corresponding wall of a 96-wells polypropylene plate, 2 μL of sample was added with a Biomek 2000 automation workstation. The plate was used as daughter plate for screening. • 3. To each wall of A1-D1 and E12-H12, 2 μL, DMSO was added. These walls were regarded as 100% of enzyme activity for control. • 4. To each wall of A12-D12 and E1-H1, 2 μL positive control with different concentrations (four concentrations prepared by double-fold dilution from […]) was added respectively. • 5. To each wall of A1-H12, 88 μL Assay mix was added respectively. • 6. To each wall of A1-H12, 10 μL hPTP1B was added respectively. • 7. The light absorption was measured at 410 nm for 3 min on a SpectraMAX 340 spectrometer. • 8. Exporting the output into a TXT file, and opening the file with Excel. The average of the Vmax values of A1-D1 and E12-H12 was considered as 100% of enzyme activity.
4) Results: The screening results were the % inhibitory rate against the enzyme when the compound concentration was 20 μg/mL. 1050 value was calculated according to a conventional screening when the inhibitory rate exceeded 50%. The […] value of the positive control, 4-[4-(4-oxalyl-phenoxymethyl)-benzyloxy]-phenyl-oxo-acetic acid, is 5.4 μM [Christopher T. Seto, et al. J. Med. Chem., 2002, 45, 3946-3952].

- IC50 (hPTP1B): 2.48 µM
SMILES: CCOC(=O)/C(C)=C\C(C)=C\c1csc([C@H](Cc2ccc(OCc3ccccc3)cc2)NC(=O)CC2CCCCC2)n1 [WY586s]
- phosphorylation level of IR (p-IR) [1]: significantly increases with the increase of the concentration of the inhibitor
